Data: the NIST ThermoML archive (doi:10.1021/acs.jced.6b00280)
Numbers after ± are expanded uncertainties.

How the values were obtained:
[1] = for mass density: 298.15 K, 101.33 kPa, Pycnometric method
[2] = refractive index (Na D-line) (dimensionless); conditions: 298.15 K; 101.33 kPa; Liquid; Standard Abbe refractometry

mass density ([1]; Crystal) | Normal melting temperature ([1]; Crystal, visual observation) | SMILES | mass density ([1]; Liquid) | refractive index [2]
– | – | CCCCOC(C)=O [butyl ethanoate] | 873.1 ± 2 kg/m3 | 1.393 ± 0.0004
– | – | CO [methanol] | 786.1 ± 2 kg/m3 | 1.3264 ± 0.0004
1346 ± 2 kg/m3 | 106.10 ± 1.6 °C | Oc1ccccc1O [1,2-benzenediol] | – | –
